The test system of one data set is Apomorphine emesis. The data set is described as follows: inhibition of apomorphine emesis test in the dog. It counts as in vivo. The following applies: for ED50: Canis lupus familiaris, ip, read-out: Apomorphine emesis (ED50). As to the method:
(§1) The symbols CR and CR2 relate, respectively, to the tests of inhibition of the primary and secondary conditioned response according to the method of L. Cook et al., Ann. […] The inhibition of apomorphine emesis test in the dog is carried out according to the method of G. Chen. et al., J. Pharm. Exptl.

A further data set relates to cardiovascular system. The data set is described as follows: side effects on the cardiovascular system. It counts as in vivo. The following applies: in comparison with chlorpromazine; at a dose level 5 to 10 times higher than that of chlorpromazine.
A short description of data set [1]: acute toxicity (LD50), rat i.p. The following applies: in vivo, ip.
In the next data set the test system is conditioned behavior. Put plainly: conditioned behavior. The following applies: in comparison with chlorpromazine, in words. It counts as in vivo, rat. As to the method:
as §1

The test system of data set [2] is secondary conditioned response. The data set is described as follows: CR2: inhibition of the secondary conditioned response. The format is in vivo, rat. The following applies: ip, read-out: CR2 (ED50). As to the method:
as §1

Data set [3] relates to primary conditioned response. The data set is described as follows: CR: inhibition of the primary conditioned response. The format is in vivo, rat. The following applies: ip, read-out: CR (ED50). As for the experimental part:
as §1

Setting [4] is: rat, i.p., secondary conditioned response.
Where [5] appears, read: rat, i.p., primary conditioned response.

Structures are written as SMILES. Where two headings read alike, the source gives them in different places.

One may read the ED50 as the dose that gives a 50% effect, or the effect in half of the subjects. A word on the LD50: it is the dose expected to kill half of the subjects tested. Lower therefore signals greater toxicity. Take `CC1(C)CN(CCN2CCN(c3cccc(Cl)c3)C2=O)C1` [A, 1-(m-chlorophenyl)-3-[2-(3,3-dimethylazetidin-1-yl)ethyl]-2-imidazolidinone]: the ED50 in the data set on Apomorphine emesis (dog, i.p.) is below 0.05 mg/kg; in data set [2] (setting [4]), 0.25 mg/kg; in data set [3] (setting [5]), 0.5 mg/kg. Besides, in the data set with Apomorphine emesis (in comparison with chlorpromazine, in words), the anti-emetic effect result is given as “more potent anti-emetic effect”. In addition, in the data set on cardiovascular system, the “side effects on the cardiovascular system” value is “much lower side effects on the cardiovascular system”. Also, in data set [1], the LD50 turned out to be 200 mg/kg. Besides, the “activity on the conditioned behavior” value in the data set with conditioned behavior is given as “more specific activity on the conditioned behavior”.

Turning to `CN(C)CCCN1c2ccccc2Sc2ccc(Cl)cc21` [CPZ, chlorpromazine], the ED50 in the data set on Apomorphine emesis was 1 mg/kg; in data set [2] (Rattus norvegicus), 0.96 mg/kg; in data set [3] (Rattus norvegicus), 3.95 mg/kg. Moreover, the LD50 in data set [1] came to 120 mg/kg.

As for `CN(C)CCN1CCN(c2cccc(Cl)c2)C1=O` [Imidoline, 1-(m-chlorophenyl)-3-(2-dimethylaminoethyl)-2-imidazolidinone], the ED50 in the data set with Apomorphine emesis (dog, i.p.) is 0.25 mg/kg; in data set [2] (setting [4]), 2.5 mg/kg; in data set [3] (setting [5]), 5 to 10 mg/kg. This compound also returned an LD50 in data set [1] of 200 mg/kg.

Source of the values: US4011238A, “2-Imidazolidione derivatives” (Gruppo Lepetit S.p.A., priority 1972, dated 1977).
